Assays:
interferon [1] = conditions: statement in words; cited from earlier work
acute toxicity in mice = format: in vivo
Method: The novel complex has low toxicity. In investigations of acute toxicity in mice, the LD50 is 900 mg per kilo body weight.

[2] = test system: hemopoietic stem cells (HSC); experiment: Investigation of the effect on hemopoietic stem cell: release into the blood (exogenous colony formation); format: in vivo, mice; conditions: statement in words
Method: Investigation of the effect on hemopoietic stem cell
Compound I was diluted in physiological saline solution to a concentration of […]. Mice of the experimental groups were inoculated with 0,2 ml of one of the obtained solutions (0,5 and 1 μg/mouse respectively) intraperitoneally. Control animals were given injections of physiological saline solutions. At 1, 2, 3, 4 and 7 days after administration of the test compound, the animals were given heparin (40 units/mouse), and then specimens of the peripheral blood, spleen and bone marrow from thighbones. The blood was diluted 1:1 with physiological saline solution. Bone marrow and spleen suspensions were prepared by the standard method. The content of hemopoietic stem cells (HSC) in the blood, bone marrow and spleens of the animals treated with the preparation were tested by the method of exogenous colony formation in the spleen of syngeneic lethally irradiated recipients; more specifically, diluted peripheral blood (0,1 ml), bone marrow cells (3-5 ×10^4 cells) or spleen cells (5×10^5 cells) were inoculated to lethally irradiated syngeneic recipients which were killed at 8-9 days; their spleens were removed, fixed in Bouin's solution, and the number of visible plaques or colonies developing from HSC was counted.

[3] = test system: hemopoietic stem cells (HSC); experiment: Effect on proliferation of HSC (S-phase, oxyurea treatment); format: in vivo, mice; conditions: statement in words
[4] = test system: Staphylococcus aureus Wood 46; experiment: Investigation of the staphylococcal activity; format: in vivo, CBA mice infected with Staphylococcus aureus Wood 46; conditions: dose of 1 μg; statement in words
Method: Investigation of the staphylococcal activity
The preparation was inoculated subcutaneously to CBA mice in doses from 0,1 to 10 μg per mouse, after which the animals were inoculated with 1,25×10^6 microbial cells of Staphylococcus aureus Wood 46.

distemper = experiment: Investigation of clinical effectiveness in dogs with distemper; format: in vivo; conditions: 2-4 ml of 0,5% solution intramuscularly twice daily for 3-10 days
Method: Investigation of clinical effectiveness in dogs with distemper
Dogs with an established diagnosis of distemper (duration of the disease from 10 to 30 days; in 3 animals--the intestinal form of the disease, in 2- pulmonary form, and in 3 animals--the neuro-paralytic stage) were inoculated intramuscularly with 2-4 ml (depending on the animal's weight) of 0,5% solution of the test compound I in distilled water twice daily for 3-10 days.

[5] = test system: α, β, γ interferons in mouse serum
Method: Investigation of induction of α, β, γ interferons in mouse serum in vivo
The level of interferon synthesis in the blood serum was determined at various intervals (5, 24, 48, 72 hours). Interferon titrations were carried out in L-929 cell cultures. The test virus was mouse encephalomyocarditis virus.

interferon [6] = conditions: mice, oral administration; cited from earlier work
γ-interferon = conditions: suspension of mononuclear cells in vitro; cited from earlier work

For `CCC[O][Ge]1([OH])[O]C(=O)c2cccc(n2)C(=O)[O]1` [2,6-pyridinediyl-biscarbonylox-(hydroxypropoxygermanium)], the “immune interferon inducer properties” value (interferon [1]) is listed as “possessing the properties of an immune interferon inducer” and the immunomodulating activity (interferon [1]) is listed as “narrow spectrum of the immunomodulating activity”.

For `O=C1[O][Ge]2([O]C(=O)c3cccc1n3)[O]C(=O)c1cccc(n1)C(=O)[O]2` [Compound I, germanium bis(pyridine-2,6-dicarboxylate)], the LD50 (acute toxicity in mice; mouse, in vivo, mice, acute toxicity) was 900 mg/kg, the toxicity (acute toxicity in mice; statement in words) was “low toxicity” and the “number of HSC in the blood” value [2] was “increases the number of HSC in the blood”. The “capacity to stimulate HSC release into the S-phase” value [3] was “No capacity to stimulate HSC release into the S-phase was demonstrated”, the “resistance of mice to staphylococcus” value [4] was “enhances the resistance of mice to staphylococcus” and the clinical outcome (distemper) was “all the animals became clinically normal”. The solubility in chloroform (solubility; chloroform) was “insoluble”, the solubility in diethylformamide (solubility; diethylformamide) was “moderately soluble” and the “solubility in dimethyl sulphoxide” value (solubility; dimethyl sulphoxide) was “moderately soluble”. The solubility in ethanol (solubility; ethanol) was “insoluble”, the solubility in ether (solubility; ether) was “insoluble” and the solubility in hydrocarbons (solubility; hydrocarbons) was “insoluble”. The solubility in water (solubility; water) was “moderately soluble”, the “γ interferon in serum” value ([5]; at later intervals postinoculation) was “at later intervals γ interferon” and the “interferons α and β in serum” value ([5]; within the first 5 hours postinoculation) was “detectable”.

For `O=C(O)C[CH2][Ge](=[O])[O][Ge](=[O])[CH2]CC(=O)O` [carboxyethylgermanium-sesquioxide], the “interferon production in the blood” value (interferon [6]) is listed as “capable, upon oral administration, of inducing interferon production in the blood of mice”, the γ-interferon synthesis (γ-interferon) is listed as “capable of inducing γ-interferon synthesis” and the “effectiveness as an immune interferon inducer” value (interferon [1]) is listed as “low effectiveness as an immune interferon inducer”. The toxicity (interferon [1]) was “has toxicity”.

From patent US6204276A, “Dicarboxylic germanium complex and its therapeutic use” (Primamedic Ltd., priority 1996, dated 2001)
